Consider three molecules from patent publication US9358305B2, “Targeted carriers for drug delivery across the gastrointestinal epithelium” (University of Maryland, College Park, priority 2009, dated 2016).

In series [1] the target is T1, mouse ICAM-1/hFc (Mus musculus, UniProt P13597).
T1 construct: the two most membrane-distal Ig domains—1 and 2—of mouse ICAM-1 fused to human Fc or hFc
Briefly: ELISA of 7-mer peptide phage clones on immobilized mouse ICAM-1/hFc vs hFc. The class given is binding. The conditions noted are these: phage clone. The text has this:
(§1) (A) ELISA measurement of the binding of 7-mer peptide expressing phage library to immobilized recombinant ICAM-1 (consisting of the two most membrane-distal Ig domains—1 and 2—of mouse ICAM-1 fused to human Fc or hFc), versus their binding to control hFc. (B) Relative specificity and (C) relative affinity of ICAM-1-targeting peptide phages, determined by ELISA from the experiment in (A). (D) Relative binding of phages expressing 7-mer peptides to native ICAM-1 expressed on the surface of HV5 mouse endothelial cells, either control or activated with TNFalpha to mimic a disease phenotype. Binding was determined by microscopy using a fluorescently-labeled antibody to the phage capsid. The line in the graph indicates the level of binding of A1 phage to 293 cells, which are voided of ICAM-1-expression. […] (G) Binding of FITC-labeled anti-ICAM polystyrene nanocarriers to human endothelial cells was evaluated by fluorescence microscopy after incubation with cells in the absence (100% level) or presence of anti-ICAM antibody, ICAM-1-targeting synthetic peptides, or peptides with their scramble sequence (e.g., A1sc).
A general note: An ELISA detects its analyte on a solid surface through an enzyme-linked reagent.

In series [2] the test system is mouse ICAM-1/hFc. The description is as above. The class given is binding. The conditions noted are these: phage clone.
From the text: as §1

Series [3] relates to human ICAM-1. Briefly: Binding of clone A1 phages to human ICAM-1/hFc and HUVEC.
In series [4] the target is T2, ICAM-1 on human endothelial cells (Homo sapiens, UniProt P05362).
T2 construct: endogenous in cells
T2 sequence (P05362 28-532): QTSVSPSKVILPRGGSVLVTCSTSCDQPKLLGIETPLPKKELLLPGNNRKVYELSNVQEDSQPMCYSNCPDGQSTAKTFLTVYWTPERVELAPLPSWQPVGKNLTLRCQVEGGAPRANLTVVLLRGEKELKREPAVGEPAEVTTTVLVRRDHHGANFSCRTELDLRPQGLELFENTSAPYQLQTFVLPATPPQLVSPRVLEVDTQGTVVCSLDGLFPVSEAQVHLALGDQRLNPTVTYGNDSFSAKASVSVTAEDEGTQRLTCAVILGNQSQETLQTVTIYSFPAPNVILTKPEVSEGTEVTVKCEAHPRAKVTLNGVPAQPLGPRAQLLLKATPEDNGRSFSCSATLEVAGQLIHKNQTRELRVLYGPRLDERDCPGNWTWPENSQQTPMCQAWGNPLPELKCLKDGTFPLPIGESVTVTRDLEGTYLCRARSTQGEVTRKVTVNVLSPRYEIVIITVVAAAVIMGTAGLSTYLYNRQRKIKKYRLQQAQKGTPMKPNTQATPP
Briefly: Competition of binding of anti-ICAM nanocarriers to human endothelial cells by synthetic peptides. It counts as cell-based. The text has this: (A) ELISA measurement of the binding of 7-mer peptide expressing phage library to immobilized recombinant ICAM-1 (consisting of the two most membrane-distal Ig domains—1 and 2—of mouse ICAM-1 fused to human Fc or hFc), versus their binding to control hFc. (B) Relative specificity and (C) relative affinity of ICAM-1-targeting peptide phages, determined by ELISA from the experiment in (A). (D) Relative binding of phages expressing 7-mer peptides to native ICAM-1 expressed on the surface of HV5 mouse endothelial cells, either control or activated with TNFalpha to mimic a disease phenotype. Binding was determined by microscopy using a fluorescently-labeled antibody to the phage capsid. The line in the graph indicates the level of binding of A1 phage to 293 cells, which are voided of ICAM-1-expression. (E, F) Endocytosis (1 h, 37° C.) of phages expressing 7-mer peptides by control mouse endothelial cells (E) or mouse endothelial cells incubated in the presence of 3 mM amiloride (F) was estimated by microscopy after staining surface-located phages with a Texas red-labeled antibody to the viral capsid, following by cell permeabilization and staining of all (surface and internalized) phages using a FITC-labeled antibody to the viral capsid. (G) Binding of FITC-labeled anti-ICAM polystyrene nanocarriers to human endothelial cells was evaluated by fluorescence microscopy after incubation with cells in the absence (100% level) or presence of anti-ICAM antibody, ICAM-1-targeting synthetic peptides, or peptides with their scramble sequence (e.g., A1sc).

Series [5] has as its system ICAM-1 on HUVEC. Kind of series: Leukocyte transmigration across TNF-activated HUVEC monolayer in transwell. The class given is cell-based, human. To be noted: compared to albumin, scrambled peptide and LB2 controls. Here is the method: Human endothelial cells (human umbilical vein endothelial cells (HUVECs)) were grown until formation of a continuous confluent monolayer in a transwell filter located between upper and lower chambers. The cells were then treated with tumor necrosis factor alpha to mimic inflammatory activation of endothelial cells and SDF1a was added to the lower chamber to generate a gradient to attract white blood cells, as during inflammation. Lymphocytes isolated from human peripheral blood were activated with interleukin 2 and added to the upper chamber above endothelial cells in the absence (control) or presence of ICAM-1-targeting peptides A1, B7, B8, B9, B10, or D6. Albumin or a peptide of scrambled sequence were used as negative controls which should not block inflammatory transmigration of leukocytes across endothelial cells. The anti-ICAM antibody LB2, which is known to block leukocyte adhesion to ICAM-1, was used as a positive control which should block such transmigration.
Leukocytes which transmigrated to the lower chamber below endothelial cells were counted to assess their transmigration. FIG. 9 provides a graph of the resulting leukocyte transmigration as a percentage of the control. The peptides annotated with an asterisk in FIG. 9 indicate that the peptide was effective in statistically significant blockage of leukocyte transmigration across endothelial cells.

For series [6], the target named is insulin receptor (Homo sapiens, UniProt P06213). The conditions noted are these: reported for other strategies; cited from earlier work.
The target of series [7] is T3, ICAM-1 (Mus musculus, UniProt P13597).
T3 construct: from tissue
T3 sequence (P13597 28-537): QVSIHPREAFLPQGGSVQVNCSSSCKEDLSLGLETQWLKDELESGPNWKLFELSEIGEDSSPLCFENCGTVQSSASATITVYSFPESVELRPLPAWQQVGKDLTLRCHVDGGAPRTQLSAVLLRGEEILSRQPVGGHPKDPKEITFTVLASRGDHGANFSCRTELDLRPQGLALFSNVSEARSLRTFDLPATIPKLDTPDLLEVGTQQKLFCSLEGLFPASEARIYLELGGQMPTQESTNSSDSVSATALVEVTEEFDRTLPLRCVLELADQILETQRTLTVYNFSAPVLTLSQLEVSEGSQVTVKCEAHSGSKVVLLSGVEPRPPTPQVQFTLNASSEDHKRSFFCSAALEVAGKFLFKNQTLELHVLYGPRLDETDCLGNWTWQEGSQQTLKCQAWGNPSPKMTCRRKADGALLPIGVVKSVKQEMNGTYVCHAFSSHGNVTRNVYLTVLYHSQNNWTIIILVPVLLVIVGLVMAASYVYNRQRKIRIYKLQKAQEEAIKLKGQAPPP
Briefly: Lung uptake (30 min) of radiolabeled ASM vs anti-ICAM carriers injected iv in mice. To be noted: 30 min after iv injection. It counts as in vivo. How it is done: (A) Lung uptake (30 min) of ^125I-labeled anti-transferrin receptor (targeted to the clathrin route), anti-GM1 (anti-ganglioside GM1, targeted to caveoli), or anti-ICAM, injected intravenously in mice as free antibodies or absorbed on the surface of 100 nm polystyrene particles (prototype carrier final size=180 nm). Particles had ^125I-labeled IgG as a tracer. Dashed line=control unspecific IgG carriers. (B) Lung uptake (30 min) of radiolabeled acid sphingomyelinase, a recombinant enzyme which binds to mannose 6 phosphate (M6P) receptor, vs anti-ICAM polystyrene carriers in control C57Bl/6 mice vs diseased ASMKO mice. Data is normalized per gram due to larger lung size in ASMKO mice. […] […]. […] (E) FITC-labeled anti-ICAM carriers of diverse geometry (anti-ICAM polystyrene spheres from 0.1 to 5 μm or 0.1×1×3 μm elliptical disks, and polymorphous anti-ICAM conjugates formed by biotin-streptavidin crosslinking were incubated with TNFα activated human umbilical vein endothelial cells (HUVEC) for 1 h at 37° C. The cells were then washed and fixed, cell surface-located carriers were differentially stained with a texas red-conjugated secondary antibody, and the samples were analyzed by fluorescence microscopy to quantify the percent of carriers internalized by the cells. Data are mean±standard error of the mean for n≧4 mice or ≧20 cells. *p<0.05, **p<0.005, ***p<0.001 by student's t test.

Ends that are not written are not given here.

T1 sequence (P13597 28-214): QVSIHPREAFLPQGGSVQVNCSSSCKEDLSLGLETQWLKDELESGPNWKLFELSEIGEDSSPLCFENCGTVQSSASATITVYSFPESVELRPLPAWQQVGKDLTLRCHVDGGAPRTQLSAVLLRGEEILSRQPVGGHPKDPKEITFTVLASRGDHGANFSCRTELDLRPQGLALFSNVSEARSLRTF

YPASYQR [A1, YPASYQR]: the “Affinity to immobilized mouse ICAM-1 over non-selected phages” value in series [1] was roughly 4.7 fold. Further, in series [2], the “Specificity vs hFc” value is listed as roughly 5.1 fold. The “Affinity for human ICAM-1 relative to mouse ICAM-1” value in series [3] is ~70 % affinity of mouse ICAM-1. For the same molecule, the “Inhibition of binding of anti-ICAM nanocarriers to human endothelial cells” value in series [4] was roughly 80 % inhibition. In series [5], the “Leukocyte transmigration across endothelial cells” value is “inhibit leukocyte transmigration”.

B1: α-L-iduronidase: enzyme targeted to insulin receptor, reported brain delivery strategy (protein, UniProt P35475 28-653, looked up)
Alpha-L-iduronidase: APHLVHVDAARALWPLRRFWRSTGFCPPLPHSQADQYVLSWDQQLNLAYVGAVPHRGIKQVRTHWLLELVTTRGSTGRGLSYNFTHLDGYLDLLRENQLLPGFELMGSASGHFTDFEDKQQVFEWKDLVSSLARRYIGRYGLAHVSKWNFETWNEPDHHDFDNVSMTMQGFLNYYDACSEGLRAASPALRLGGPGDSFHTPPRSPLSWGLLRHCHDGTNFFTGEAGVRLDYISLHRKGARSSISILEQEKVVAQQIRQLFPKFADTPIYNDEADPLVGWSLPQPWRADVTYAAMVVKVIAQHQNLLLANTTSAFPYALLSNDNAFLSYHPHPFAQRTLTARFQVNNTRPPHVQLLRKPVLTAMGLLALLDEEQLWAEVSQAGTVLDSNHTVGVLASAHRPQGPADAWRAAVLIYASDDTRAHPNRSVAVTLRLRGVPPGPGLVYVTRYLDNGLCSPDGEWRRLGRPVFPTAEQFRRMRAAEDPVAAAPRPLPAGGRLTLRPALRLPSLLLVHVCARPEKPPGQVTRLRALPLTQGQLVLVWSDEHVGSKCLWTYEIQFSQDGKAYTPVSRKPSTFNLFVFSPDTGAVSGSYRVRALDYWARPGPFSDPVPYLEVPVPRGPPSPGNP
On to B1, for which the “Brain accumulation, targeting to insulin receptor” value in series [6] is 0.02 % injected dose per gram (% ID/g).

B2: free ASM: recombinant acid sphingomyelinase, an enzyme that binds to mannose-6-phosphate receptor (protein, UniProt P17405 47-631, looked up)
Sphingomyelin …: LALSDSRVLWAPAEAHPLSPQGHPARLHRIVPRLRDVFGWGNLTCPICKGLFTAINLGLKKEPNVARVGSVAIKLCNLLKIAPPAVCQSIVHLFEDDMVEVWRRSVLSPSEACGLLLGSTCGHWDIFSSWNISLPTVPKPPPKPPSPPAPGAPVSRILFLTDLHWDHDYLEGTDPDCADPLCCRRGSGLPPASRPGAGYWGEYSKCDLPLRTLESLLSGLGPAGPFDMVYWTGDIPAHDVWHQTRQDQLRALTTVTALVRKFLGPVPVYPAVGNHESTPVNSFPPPFIEGNHSSRWLYEAMAKAWEPWLPAEALRTLRIGGFYALSPYPGLRLISLNMNFCSRENFWLLINSTDPAGQLQWLVGELQAAEDRGDKVHIIGHIPPGHCLKSWSWNYYRIVARYENTLAAQFFGHTHVDEFEVFYDEETLSRPLAVAFLAPSATTYIGLNPGYRVYQIDGNYSGSSHVVLDHETYILNLTQANIPGAIPHWQLLYRARETYGLPNTLPTAWHNLVYRMRGDMQLFQTFWFLYHKGHPPSEPCGTPCRLATLCAQLSARADSPALCRHLMPDGSLPEAQSLWPRPLFC
Turning to B2, in series [7], the “Lung accumulation, fold lower than ICAM-1 targeting” value turned out to be 10 fold.
